Our source for the IC50 values is patent US20250163104A1, “MACROCYCLIC IMMUNOMODULATORS” (priority 2021, published 2025).

Where two headings read alike, the source gives them in different places. Where a SMILES comes first, the peptide text is derived from it. Bridges are numbered along the chain shown (N, C = ends). [ ]: non-standard residue; d: D form. The star is where a group is joined. ξ: configuration not given here. Phe(3-CF3) = N[C@@H](Cc1cccc(C(F)(F)F)c1)C(=O)O; Phe(4-COOH) = N[C@@H](Cc1ccc(C(=O)O)cc1)C(=O)O; Bip = N[C@@H](Cc1ccc(-c2ccccc2)cc1)C(=O)O; Phe(3-Me) = Cc1cccc(C[C@H](N)C(=O)O)c1; Abu(3S-NH2) = C[C@H](N)[C@H](N)C(=O)O; 3Pal = N[C@@H](Cc1cccnc1)C(=O)O; 4Pal = N[C@@H](Cc1ccncc1)C(=O)O; 2Thi = N[C@@H](Cc1cccs1)C(=O)O; Cha = N[C@@H](CC1CCCCC1)C(=O)O; Cit = NC(=O)NCCC[C@H](N)C(=O)O; Ile(3ξ) = CCC(C)[C@H](N)C(=O)O; Thr(3ξ) = CC(O)[C@H](N)C(=O)O; Chg = N[C@H](C(=O)O)C1CCCCC1; Tle = CC(C)(C)[C@H](N)C(=O)O; Carboxymethyl = O=C(O)C*; Nle = CCCC[C@H](N)C(=O)O; Orn = NCCC[C@H](N)C(=O)O; Dab = NCC[C@H](N)C(=O)O; Dap = NC[C@H](N)C(=O)O

The term IC50 denotes the concentration needed to halve the response being measured.

The target in the experiment is T1, human PD-1 / PD-L1-Ig binding on Jurkat cell line over-expressing human PD-1 (Jurkat-PD-1) (Homo sapiens, UniProt Q15116).
T1 construct: expressed in transfected cells; host or cells: Jurkat
The experiment can be described thus: Jurkat-PD-1 Cell Binding High-Content Screening Assay (CBA). The class given is cell-based. The following applies: PE-labeled PD-L1-Ig 20 nM final. Put shortly:
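Binding of fluorescent PD-L1-Ig (phycoerythrin linked via the Ig tag, 20 nM final) to PD-1-overexpressing Jurkat cells was imaged after a 2 h, 37° C compound pretreatment and 1 hour ligand incubation.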

Where [1] appears, read: Jurkat-PD-1 cells, read-out: Jurkat HPD1_PDL1 IC50.

T1 sequence (Q15116 25-288): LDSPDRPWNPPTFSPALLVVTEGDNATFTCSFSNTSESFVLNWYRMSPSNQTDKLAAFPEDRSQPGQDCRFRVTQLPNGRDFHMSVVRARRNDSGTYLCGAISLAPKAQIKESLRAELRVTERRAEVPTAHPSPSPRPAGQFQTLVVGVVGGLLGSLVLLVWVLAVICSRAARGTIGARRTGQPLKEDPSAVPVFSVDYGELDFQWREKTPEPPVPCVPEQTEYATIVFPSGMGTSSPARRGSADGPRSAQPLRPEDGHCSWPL

With `CC(C)C[C@H]1NC(=O)[C@H](CCCN)NC(=O)[C@H](C(C)C)NC(=O)[C@H](Cc2ccc(-c3ccccc3)cc2)NC(=O)[C@H](C(C)C)NC(=O)[C@H](Cc2c[nH]c3ccccc23)NC(=O)[C@H](CC(=O)O)NC(=O)[C@H](Cc2ccncc2)NC(=O)[C@H](CN)NC(=O)CSC[C@@H](C(=O)N[C@@H](C)C(N)=O)NC(=O)[C@H]([C@@H](C)O)NC(=O)[C@H](C(C)C)NC(=O)[C@H](CC2CCCCC2)NC(=O)[C@H](Cc2cnc[nH]2)NC1=O` [Compound 1611], the IC50 under setting [1] was determined as 9.6 nM.
On the same count and under the same terms, in the case of `CC(C)C[C@@H]1NC(=O)[C@H](CCN)NC(=O)[C@@H](CC(C)C)NC(=O)[C@H](CCCN)NC(=O)[C@H](C(C)C)NC(=O)[C@H](Cc2ccc(-c3ccccc3)cc2)NC(=O)[C@H](C(C)C)NC(=O)[C@H](Cc2c[nH]c3ccccc23)NC(=O)[C@H](CC(N)=O)NC(=O)[C@H](Cc2ccc(O)cc2)NC(=O)[C@H](CN)NC(=O)CSC[C@@H](C(=O)N[C@@H](C)C(N)=O)NC(=O)[C@H]([C@@H](C)O)NC(=O)[C@H](C(C)C)NC1=O` [Compound 1087] ({CH2CO}-[Dap]YNWV[Bip]V[Orn][dL][Dab]LVTCA-NH2; thioether N-14) it was 36.6 nM.
As for `CC(C)C[C@H]1NC(=O)[C@H](CCCN)NC(=O)[C@H](Cc2ccc(OCc3ccccc3)cc2)NC(=O)[C@H](Cc2ccc(-c3ccccc3)cc2)NC(=O)[C@H](C(C)C)NC(=O)[C@H](Cc2c[nH]c3ccccc23)NC(=O)[C@H](CC(=O)O)NC(=O)[C@H](Cc2ccc(OCC(=O)O)cc2)NC(=O)[C@H](CN)NC(=O)CSC[C@@H](C(=O)N[C@@H](C)C(N)=O)NC(=O)[C@H]([C@@H](C)O)NC(=O)[C@H](C(C)C)NC(=O)[C@H](CC2CCCCC2)NC(=O)[C@H](CCN)NC1=O` [Compound 1530], the half-inhibitory concentration (IC50) (Jurkat HPD1_PDL1 IC50, Jurkat-PD-1 cells) was 94.9 nM.
Turning to `CC(C)C[C@H]1NC(=O)[C@H](CCCN)NC(=O)[C@H](C(C)C)NC(=O)[C@H](Cc2ccc(-c3ccccc3)cc2)NC(=O)[C@H](C(C)C)NC(=O)[C@H](Cc2c[nH]c3ccccc23)NC(=O)[C@H](CC(=O)O)NC(=O)[C@H](Cc2ccc(C(=O)O)cc2)NC(=O)[C@H](Cc2ccc(OCC(=O)O)cc2)NC(=O)CSC[C@@H](C(=O)N[C@@H](C)C(N)=O)NC(=O)[C@H]([C@@H](C)O)NC(=O)[C@H](C(C)C)NC(=O)[C@H](Cc2ccc(O)cc2)NC(=O)[C@H](CCN)NC1=O` [Compound 1682] ({CH2CO}-Y(Carboxymethyl)[Phe(4-COOH)]DWV[Bip]V[Orn][dL][Dab]YVTCA-NH2; thioether N-14), the IC50 under setting [1] came out at 66 nM.
Same read-out and setting: in the case of `Cc1cccc(C[C@@H]2NC(=O)[C@H](CC(=O)O)NC(=O)[C@H](Cc3ccc(C(=O)O)cc3)NC(=O)[C@H](Cc3ccncc3)NC(=O)CSC[C@@H](C(N)=O)NC(=O)[C@H]([C@@H](C)O)NC(=O)[C@H](C(C)C)NC(=O)[C@H](CC3CCCCC3)NC(=O)[C@H](CCN)NC(=O)[C@@H](CC(C)C)NC(=O)[C@H](CCCN)NC(=O)[C@H](C(C)C)NC(=O)[C@H](Cc3ccc(-c4ccccc4)cc3)NC(=O)[C@H](C(C)C)NC2=O)c1` [Compound 1548] ({CH2CO}-[4Pal][Phe(4-COOH)]D[Phe(3-Me)]V[Bip]V[Orn][dL][Dab][Cha]VTC-NH2; thioether N-14) it was 18.4 nM; in that of `CC(C)C[C@H]1NC(=O)[C@H](CCCN)NC(=O)[C@H](CCCNC(N)=O)NC(=O)[C@H](Cc2ccc(-c3ccccc3)cc2)NC(=O)[C@H](C2CCCCC2)NC(=O)[C@H](Cc2c[nH]c3ccccc23)NC(=O)[C@H](CC(=O)O)NC(=O)[C@H](Cc2ccc(OCC(=O)O)cc2)NC(=O)[C@H](CN)NC(=O)CSC[C@@H](C(=O)N[C@@H](C)C(N)=O)NC(=O)[C@H]([C@@H](C)O)NC(=O)[C@H](C(C)C)NC(=O)[C@H](CC2CCCCC2)NC(=O)[C@H](CCN)NC1=O` [Compound 1357] ({CH2CO}-[Dap]Y(Carboxymethyl)DW[Chg][Bip][Cit][Orn][dL][Dab][Cha]VTCA-NH2; thioether N-14), 4.8 nM; in that of `CC(C)C[C@H]1NC(=O)[C@H](CCCN)NC(=O)[C@H](CCC(=O)O)NC(=O)[C@H](Cc2ccc(-c3ccccc3)cc2)NC(=O)[C@H](C(C)C)NC(=O)[C@H](Cc2cccc(C(F)(F)F)c2)NC(=O)[C@H](CC(=O)O)NC(=O)[C@H](Cc2ccc(OCC(=O)O)cc2)NC(=O)[C@H](Cc2cccnc2)NC(=O)CSC[C@@H](C(=O)N[C@@H](C)C(N)=O)NC(=O)[C@H]([C@@H](C)O)NC(=O)[C@H](C(C)C)NC(=O)[C@H](CC2CCCCC2)NC(=O)[C@H](CCN)NC1=O` [Compound 1502], 16.8 nM.
The same measure, in the same setting: in the case of `CCCC[C@@H]1NC(=O)[C@H](CC(N)=O)NC(=O)[C@@H](CC(C)C)NC(=O)[C@H](CCCN)NC(=O)[C@H](C(C)C)NC(=O)[C@H](Cc2ccc(-c3ccccc3)cc2)NC(=O)[C@H](CC(C)C)NC(=O)[C@H](Cc2c[nH]c3ccccc23)NC(=O)[C@H](CC(=O)O)NC(=O)[C@H](Cc2ccncc2)NC(=O)[C@H](Cc2ccc(OCC(=O)O)cc2)NC(=O)CSC[C@@H](C(=O)NCC(N)=O)NC(=O)[C@H](CO)NC(=O)[C@H](C(C)C)NC1=O` [Compound 1343] ({CH2CO}-Y(Carboxymethyl)[4Pal]DWL[Bip]V[Orn][dL]N[Nle]VSCG-NH2; thioether N-14) it was 29.9 nM.
As to `CCC(C)[C@@H]1NC(=O)[C@H](Cc2ccc(-c3ccccc3)cc2)NC(=O)[C@H](C(C)C)NC(=O)[C@H](Cc2cccc(C)c2)NC(=O)[C@H](CC(=O)O)NC(=O)[C@H](Cc2cccnc2)NC(=O)[C@H](CC(N)=O)NC(=O)CSC[C@@H](C(=O)N[C@@H](C)C(N)=O)NC(=O)[C@H]([C@@H](C)O)NC(=O)[C@H](C(C)C)NC(=O)[C@H](CC2CCCCC2)NC(=O)[C@H](CCN)NC(=O)[C@@H](CC(C)C)NC(=O)[C@H](CCCN)NC1=O` (stereo partly drawn) [Compound 2233] ({CH2CO}-N[3Pal]D[Phe(3-Me)]V[Bip][Ile(3ξ)][Orn][dL][Dab][Cha]VTCA-NH2; thioether N-14), the IC50 under setting [1] came to 12 nM.
Still for that read-out and setting: as for `CCC(C)[C@@H]1NC(=O)[C@H](Cc2ccc(-c3ccccc3)cc2)NC(=O)[C@H](C(C)C)NC(=O)[C@H](Cc2cc(C)ccc2OC)NC(=O)[C@H](CC(=O)O)NC(=O)[C@H](Cc2ccc(OCC(=O)O)cc2)NC(=O)[C@H](CN)NC(=O)CSC[C@@H](C(=O)N[C@@H](C)C(N)=O)NC(=O)[C@H]([C@@H](C)O)NC(=O)[C@H](C(C)C)NC(=O)[C@H](CC2CCCCC2)NC(=O)[C@H](CCN)NC(=O)[C@@H](CC(C)C)NC(=O)[C@H](CCCN)NC1=O` (stereo partly drawn) [Compound 2249], the figure is 134 nM; as for `CC(C)C[C@H]1NC(=O)[C@H](CCCN)NC(=O)[C@H](CCC(=O)O)NC(=O)[C@H](Cc2ccc(-c3ccccc3)cc2)NC(=O)[C@H](C(C)C)NC(=O)[C@H](Cc2cccs2)NC(=O)[C@H](CC(=O)O)NC(=O)[C@H](Cc2ccc(OCC(=O)O)cc2)NC(=O)[C@H](CN)NC(=O)CSC[C@@H](C(=O)N[C@@H](C)C(N)=O)NC(=O)[C@H]([C@@H](C)O)NC(=O)[C@H](C(C)C)NC(=O)[C@H](CC2CCCCC2)NC(=O)[C@H](CCN)NC1=O` [Compound 2153] ({CH2CO}-[Dap]Y(Carboxymethyl)D[2Thi]V[Bip]E[Orn][dL][Dab][Cha]VTCA-NH2; thioether N-14), 10.1 nM.
For `CC(C)C[C@H]1NC(=O)[C@H](CCCN)NC(=O)[C@H](C(C)C)NC(=O)[C@H](Cc2ccc(-c3ccccc3)cc2)NC(=O)[C@H](C(C)C)NC(=O)[C@H](Cc2c[nH]c3ccccc23)NC(=O)[C@H](CC(=O)O)NC(=O)[C@H](Cc2ccc(OCC(=O)O)cc2)NC(=O)[C@H](Cc2cnc[nH]2)NC(=O)CSC[C@@H](C(=O)N[C@@H](CC(N)=O)C(N)=O)NC(=O)[C@H](C(C)O)NC(=O)[C@H](C(C)C)NC(=O)[C@H](CC2CCCCC2)NC(=O)[C@H](CCN)NC1=O` (stereo partly drawn) [Compound 2548] ({CH2CO}-HY(Carboxymethyl)DWV[Bip]V[Orn][dL][Dab][Cha]V[Thr(3ξ)]CN-NH2; thioether N-14), the IC50 under setting [1] is 5.9 nM.
Same read-out and setting: in the case of `CC(C)C[C@H]1NC(=O)[C@H](CCCN)NC(=O)[C@H](Cc2ccc(C(=O)O)cc2)NC(=O)[C@H](Cc2ccc(-c3ccccc3)cc2)NC(=O)[C@H](Cc2ccc(C(=O)O)cc2)NC(=O)[C@H](Cc2cccc(C(F)(F)F)c2)NC(=O)[C@H](CC(=O)O)NC(=O)[C@H](Cc2ccc(C(=O)O)cc2)NC(=O)[C@H]([C@H](C)N)NC(=O)CSC[C@@H](C(=O)N[C@@H](CCN)C(N)=O)NC(=O)[C@H](CO)NC(=O)[C@H](C(C)(C)C)NC(=O)[C@H](CC2CCCCC2)NC(=O)[C@H](CCN)NC1=O` [Example 2708] ({CH2CO}-[Abu(3S-NH2)][Phe(4-COOH)]D[Phe(3-CF3)][Phe(4-COOH)][Bip][Phe(4-COOH)][Orn][dL][Dab][Cha][Tle]SC[Dab]-NH2; thioether N-14) it was 0.6 nM; in that of `CCCC[C@H]1NC(=O)[C@H](CCCN)NC(=O)[C@H](CCCNC(N)=O)NC(=O)[C@H](Cc2ccc(-c3ccccc3)cc2)NC(=O)[C@H](C(C)C)NC(=O)[C@H](Cc2c[nH]c3ccccc23)NC(=O)[C@H](CC(=O)O)NC(=O)[C@H](Cc2ccc(OCC(=O)O)cc2)NC(=O)[C@H](Cc2ccncc2)NC(=O)CSC[C@@H](C(=O)N[C@@H](C)C(N)=O)NC(=O)[C@H]([C@@H](C)O)NC(=O)[C@H](C(C)C)NC(=O)[C@H](CC2CCCCC2)NC(=O)[C@H](CCN)NC1=O` [Compound 1701], 24.5 nM.
Still for that read-out and setting: as for `CCCC[C@H]1NC(=O)[C@H](CCCN)NC(=O)[C@H](CCC(=O)O)NC(=O)[C@H](Cc2ccc(-c3ccccc3)cc2)NC(=O)[C@H](C(C)C)NC(=O)[C@H](Cc2c[nH]c3ccccc23)NC(=O)[C@H](CC(=O)O)NC(=O)[C@H](Cc2ccc(C(=O)O)cc2)NC(=O)[C@H](Cc2ccc(OCC(=O)O)cc2)NC(=O)CSC[C@@H](C(=O)N[C@@H](C)C(N)=O)NC(=O)[C@H]([C@@H](C)O)NC(=O)[C@H](C(C)C)NC(=O)[C@H](CC2CCCCC2)NC(=O)[C@H](CCN)NC1=O` [Compound 1455], the figure is 8.3 nM.
